Laboratory results as given in patent US20140303109A1 (priority 2010, published 2014).

Columns and labels:
[1] = system: NF-κB DNA binding activity; test: EMSA for NF-κB DNA binding activity in tumor tissue; type: in vivo, mice; conditions: MIA PaCa-2 tumors
Experimental: Nuclear extracts were prepared from tumor tissue induced by the MIA PaCa-2 cells using an homogenizer with 400 μl of ice cold lysis buffer extracted as described earlier. EMSA was performed using the Odyssey Infrared Imaging System with NF-κβ 1RDye labeled oligonucleotide from LI-COR, Inc. (Lincoln, Nebr.). An NF-Kβ competition control study was conducted using unlabeled NF-Kβ consensus oligonucleotide. The samples were loaded and run at 30 mA for 1 hour. The gel was scanned using Odyssey Infrared Imaging System (LI-COR, Inc.).

[2] = system: miR-200b and miR-200c; test: Real-time RT-PCR of miR-200b and miR-200c in PC cell lines; type: cell-based, human; conditions: 72 h; BxPC-3, MIAPaCa-E, MIAPaCaM
Experimental: The expression of miRNAs (miRNA-200a, miR-200b, and miR-21) in all three pancreatic cancer cell lines, was measured with a TaqMan MicroRNA Assay kit (Applied Biosystems, Carlsbad, Calif.) following the manufacturer's protocol. […] Real-time RT-PCR reactions were then carried out in a total volume of 25 μl reaction mixture, as described by Li, et al., id., using Smart Cycler II (Cepheid, Sunnyvale, Calif.). The data were analyzed using Ct method and were normalized by RNU6B expression in each sample.

[3] = system: NF-κB DNA binding activity; test: EMSA for NF-κB DNA binding activity, three PC lines; type: cell-based, human; conditions: 72 h; CDF/CUR 1 or 4 μMol/L, GEM 10 nMol/L
Experimental: The DNA binding activity of the nuclear transcription factor, NF-κB was assessed in the BxPC-3, MIAPaCa-E, and MIAPaCa-M cell lines by EMSA. […] The cells were lysed in 400 μl of lysis buffer and the reaction was set up as described earlier in Ali, et al., id. The gel was scanned using an Odyssey Infrared Imaging System, (LI-COR, Inc., Lincoln, Nebr.). Equal protein loading was ensured by immunoblotting 10 μg of nuclear protein and probing with anti-retinoblastoma antibody.

[4] = system: PGE2; test: PGE2 immunoassay, three PC lines; type: cell-based, human; conditions: 24 h serum-free; CDF or CUR 1-4 μMol/L, GEM 10 nMol/L

Nc1ccn([C@@H]2O[C@H](CO)[C@@H](O)C2(F)F)c(=O)n1 [GEM, gemcitabine]
NF-κβ activation in tumor tissue [1]: activated NF-κβ levels | expression of miR-200b and miR-200c [2]: increased expression of miR-200b and miR-200c | NF-κβ DNA binding activity [3]: activation of NF-κβ in all three cell lines | PGE2 secretion level [4]: substantial increase in the level of PGE2 secretion
